# Assay results published in patent publication US5932709A (University of Michigan, priority 1997, dated 1999).
# pIC50: −log10 of the molar value. Where “and” joins values, the source holds several entries; their conditions need not be identical. Identical values can stand only once. Counter-ions that a name gives are not always drawn.
# Experiments:
# [1] = system: Lewis lung carcinoma; settings: vs unmodified camptothecin, side by side; cited from earlier work
# [2] = system: murine P388 leukemia; assay: Murine P388 leukemia model in vivo; design: species or system mouse (B6D2F1)
# Method: (§1) For the B16 melanoma model, the following procedure was used. B6D2F1 mice receive i.p. inocula of B16 murine melanoma brei prepared from B16 tumors growing s.c. in mice (day 0). […] If dosing information for agents is not available, the maximum tolerated dose (MTD) is determined in initial dose finding experiments in non-tumored mice.
# (§2) The mean survival times of all groups are calculated, and results are expressed as mean survival of treated mice/mean survival of control mice (T/C)×100%. A T/C value of 150 means that the mice in the treated group lived 50% longer than those of the control group; this is sometimes referred to as the increase in life span or ILS value.
# For the P388 leukemia model, the procedure followed is exactly the same as the aforementioned B16 model. The tumor inoculum is prepared by removing ascited fluid containing P388 cells from tumored B6D2F1 mice, centrifuging the cells, and then resuspending the leukemia cells in saline. Mice receive 1×10^6 P388 cells i.p. on day 0.
# [3] = as hydrochloride salt; cited from earlier work
# [4] = system: B16 murine melanoma; settings: vs unmodified camptothecin, side by side; cited from earlier work
# [5] = system: tumor growth; settings: in words; cited from earlier work
# [6] = system: MX-1 human breast tumor xenograft; assay: in vivo
# Text: For all the models, the vehicle used to deliver the analog of interest was isotonic saline.
# For the MX-1 human breast tumor xenograft models, the following procedure was used. Nude mice are implanted s.c. by trocar with fragments of MX-1 mammary carcinomas harvested from s.c. growing MX-1 tumors in nude mice hosts. When tumors are approximately 5 mm×5 mm in size (usually about ten days after inoculation), the animals are pair-matched into treatment and control groups. Each group contains ten tumored mice, each of which is ear-tagged and followed individually throughout the experiment. The administration of drugs or vehicle begins the day the animals are pair-matched (day 1). The doses, route of drug administration and schedule are selected as appropriate for the study in question. If the MTD dose of an agent is not known, it is determined in an initial dosing experiment in non-tumored mice. In a typical experiment, drugs are given at their MTD and 1/2 MTD doses i.p. on a daily×5 schedule.
# The experiment is usually terminated when control tumors reach a size of 2-3 g. Mice are weighed twice weekly, and tumor measurements are taken by calipers twice weekly, starting on day 1. These tumor measurements are converted to mg tumor weight by a well known formula, and from these calculated tumor weights the termination date can be determined. Upon termination, all mice are weighed, sacrificed, and their tumors excised. Tumors are weighed, and the mean tumor weight per group is calculated.
# Some drugs cause tumor shrinkage in the MX-1 model. With these agents, the final weight of a given tumor is subtracted from its own weight at the start of the treatment on day 1. This difference divided by the initial tumor weight is the % shrinkage. A mean % tumor shrinkage can be calculated from data from the mice in a group that experienced MX-1 regressions. If the tumor completely disappears in a mouse, this is considered a complete regression or complete tumor shrinkage. If desired, mice with partial or total tumor regressions can be kept alive past the termination date to see whether they live to become long term, tumor-free survivors.
# Note that in the following table the abbreviation SR refers to tumor shrinkage rate, while those entries followed by a superscripted `2` are tumor growth inhibition rates, not tumor shrinkage rates.
# [7] = human, in vivo; cited from earlier work
# [8] = system: P388 murine leukemia; settings: vs unmodified camptothecin, side by side; cited from earlier work
# [9] = target: topoisomerase I; settings: TPT-HCl; Wall et al.; cited from earlier work
# [10] = system: carcinoma cells; settings: in vitro clonogenic assay / tumor cell growth, in words; cited from earlier work
# [11] = system: murine B16 melanoma; assay: Murine B16 melanoma model in vivo; design: species or system mouse (B6D2F1); settings: for Survivors: 60-day
# Method: 1) Murine B16 Melanoma Model
# as §1, §2
# Mice that survive for 60 days are considered long-term survivors, or cures, in the B16 model. The universally accepted cut-off for activity in this model, which has been for years by the National Cancer Institute, is T/C=125. Conventional use of B16 over the years has set the following levels of activity: T/C<125, no activity, T/C=125-150, weak activity; T/C=150-200, modest activity; T/C=200-300, high activity; T/C>300, with long term survivors; excellent, curative activity.
# [12] = system: human lung tumor xenograft; assay: Human lung tumor xenograft model; assay type: in vivo, human tumor in nude mice
# Text: (§3) For the human lung and prostate tumor xenograft models the following procedure was used. Nude mice were implanted s.c. by trocar with fragments of human lung or prostate carcinomas harvested from s.c. growing tumors in nude mice hosts. When tumors were approximately 5 mm×5 mm in size (usually ten to fourteen days after inoculation), the animals were pair-matched into treatment and control groups. Each group contained 10 tumored mice, each of which was ear-tagged and followed individually throughout the experiment. […] The doses, route of drug administration and schedule were selected as appropriate for the study in question. (See above protocol). […] Topotecan was run as a positive control at its MTD dose on a daily×5 and a daily×1 schedule. Male nude mice were used for both prostate studies.
# (§4) Mice are weighed twice weekly, and tumor measurements were taken by calipers twice weekly, starting on day 1.
# (§5) Some drugs cause tumor shrinkage in the human tumor xenograft models. […] A mean % tumor shrinkage can be calculated from the data from the mice in a group that experienced tumor regressions.
# [13] = system: human prostate tumor xenograft; assay: Human prostate tumor xenograft model; assay type: in vivo, human tumor in nude mice
# Text: as §3, §4, §5
smiles,measurement,setting,value
"CC[C@@]1(O)C(=O)OCc2c1cc1n(c2=O)Cc2cc3c(CN(C)C)c(O)ccc3nc2-1 [TPT, [(s)-9-dimethylaminomethyl-10-hydroxycamptothecin hydrochloride], reference compound]",in vivo antitumor efficacy,[1],superior to unmodified camptothecin
same,30-day survivors,[2]; 4 mg/kg daily×5,Three
same,T/C (mean survival treated/control),[2]; 4 mg/kg i.p. daily×5,297%
same,Tox Deaths,[2]; 4 mg/kg i.p. daily×5,0/10
same,ΔWeight (%),[2]; 4 mg/kg i.p. daily×5,-6.6%
same,Survivors,"[2]; 4 mg/kg i.p. daily×5, 30-day",3/10
same,efficacy vs P388 leukemia,"[2]; i.p. five day schedule, in words",comparable to that produced by HAR 6
same,water solubility,[3],1000 µg/mL
same,in vivo antitumor efficacy,[4],superior to unmodified camptothecin
same,effectiveness against tumor growth in animal studies,[5],at least as good or better than camptothecin
same,weight loss,[6]; 4 mg/kg,15%
same,Tox Deaths,[6]; 4 mg/kg i.p. daily×5,0/10
same,ΔWeight (%),[6]; 4 mg/kg i.p. daily×5,-15.4%
same,mean tumor shrinkage,"[6]; 4 mg/kg i.p. daily×5, all 10 mice, HAR 6 experiment",94%
same,Shrinkage (animals),"[6]; 4 mg/kg i.p. daily×5, partial (94%)",6/10
same,mice with tumor shrinkage,"[6]; 4 mg/kg, HAR 6 experiment",10
same,mortality,"[6]; 4 mg/kg, HAR 6 experiment",no mortality
same,complete regressions,"[6]; 4 mg/kg, second experiment",one
same,drug-related deaths,"[6]; 4 mg/kg, second experiment",one
same,mice with tumor growth inhibition,"[6]; 4 mg/kg, second experiment",two
same,partial responders,"[6]; 4 mg/kg, second experiment",six
same,Shrinkage (animals),"[6]; 4 mg/kg, complete (100%) shrinkage",1/10
same,tumor growth inhibition,"[6]; 4 mg/kg, two mice, second experiment",94%
same,SR(%) (Tumor Shrinkage Rate),[6]; in vivo,94% and 100%
same,side effects in human clinical studies,[7],"myelosuppression, neutropenia, and thrombocytopenia"
same,in vivo antitumor efficacy,[8],superior to unmodified camptothecin
same,pIC50,[9],5.96
same,topoisomerase I IC50,[9],0.504 µg/mL
same,anti-tumor effect in vitro,[10],significant anti-tumor effects
same,60-day survivors (cures),[11]; 2 mg/kg,one
same,T/C (mean survival treated/control),[11]; 2 mg/kg i.p. daily×5,201%
same,Tox Deaths,[11]; 2 mg/kg i.p. daily×5,0/10
same,ΔWeight (%),[11]; 2 mg/kg i.p. daily×5,+1.9%
same,Survivors,[11]; 2 mg/kg i.p. daily×5,1/10
same,T/C (mean survival treated/control),"[11]; 2 mg/kg i.p. daily×5, listed as Topotecan",210%
same,T/C (mean survival treated/control),[11]; 4 mg/kg i.p. daily×5,212%
same,Tox Deaths,[11]; 4 mg/kg i.p. daily×5,0/10
same,ΔWeight (%),[11]; 4 mg/kg i.p. daily×5,-7.0%
same,Survivors,[11]; 4 mg/kg i.p. daily×5,0/10
same,Deaths,[12]; 4 mg/kg × 5 days,0/10
same,Shrink (% Tumor Shrinkage Rate),[12]; 4 mg/kg × 5 days,55%
same,Shrink (number of animals),[12]; 4 mg/kg × 5 days,2/10
same,TGI (% Tumor Growth Inhibition Rate),[12]; 4 mg/kg × 5 days,66%
same,TGI (number of animals),[12]; 4 mg/kg × 5 days,8/10
same,Deaths,[12]; 8 mg single ds,0/10
same,Shrink (number of animals),[12]; 8 mg single ds,0/10
same,TGI (number of animals),[12]; 8 mg single ds,0/10
same,"efficacy, single dose","[12]; single dose, in words",completely ineffective
same,Deaths,[13]; 3 mg/kg × 5 days,0/10
same,Shrink (number of animals),[13]; 3 mg/kg × 5 days,0/10
same,TGI (% Tumor Growth Inhibition Rate),[13]; 3 mg/kg × 5 days,35%
same,TGI (number of animals),[13]; 3 mg/kg × 5 days,10/10
same,Deaths,[13]; 8 mg single ds,0/10
same,Shrink (number of animals),[13]; 8 mg single ds,0/10
same,TGI (number of animals),[13]; 8 mg single ds,0/10
same,"efficacy, single dose","[13]; single dose, in words",completely ineffective
